# Data taken from US10602743B2, “Method of inducing drought/salt tolerance using Bacillus megaterium” (Marrone Bio Innovations, Inc., priority 2012, dated 2020).
# Structures can show the parent of a compound that is named as a salt. Where two headings read alike, the source gives them in different places.
# System: Bacillus megaterium strain H491
# Assay: Chemical sensitivity, Biolog Phenotypic Microarray
# Assay type: cell-based
# [1] = Biolog Phenotypic Microarray, 25° C.
Compound,H491 susceptible to compound [1],H491 susceptible to compound
Cn1c(=O)c2c(ncn2C)n(C)c1=O [Caffeine],susceptible,–
O=C1C2CC=CCC2C(=O)N1SC(Cl)(Cl)Cl (stereo not drawn) [Captan],susceptible,–
CC1(C)S[C@@H]2[C@H](NC(=O)C(C(=O)O)c3ccccc3)C(=O)N2[C@H]1C(=O)O (stereo partly drawn) [Carbenicillin],susceptible,–
N#CC(C#N)=NNc1cccc(Cl)c1 [Carbonyl-cyanide m-chlorophenylhydrazone],susceptible,–
Cc1nnc(SCC2=C(C(=O)O)N3C(=O)[C@@H](NC(=O)Cn4cnnn4)[C@H]3SC2)s1 [Cefazolin],susceptible,–
CO[C@@]1(NC(=O)Cc2cccs2)C(=O)N2C(C(=O)O)=C(COC(N)=O)CS[C@@H]21 [Cefoxitin],susceptible,–
NC(=O)c1cc[n+](CC2=C(C(=O)O)N3C(=O)[C@@H](NC(=O)[C@@H](c4ccccc4)S(=O)(=O)[O-])[C@H]3SC2)cc1 [Cefsulodin],susceptible,–
CC(=O)OCC1=C(C(=O)O)N2C(=O)[C@@H](NC(=O)Cc3cccs3)[C@H]2SC1 [Cephalothin],susceptible,–
[Cl-].[Cs+] [Cesium chloride],susceptible,–
O=C(O)CCCc1ccc(N(CCCl)CCCl)cc1 [Chlorambucil],susceptible,–
CC(=O)O.CC(=O)O.NC(=N\CCCCCC/N=C(N)/N=C(\N)Nc1ccc(Cl)cc1)/N=C(\N)Nc1ccc(Cl)cc1 [Chlorhexidine diacetate],susceptible,–
CN(C)CCCN1c2ccccc2Sc2ccc(Cl)cc21 [Chlorpromazine],susceptible,–
CCn1nc(C(=O)O)c(=O)c2cc3c(cc21)OCO3 [Cinoxacin],susceptible,–
Cc1onc(-c2ccccc2Cl)c1C(=O)N[C@@H]1C(=O)N2[C@@H]1SC(C)(C)[C@@H]2C(=O)O [Cloxacillin],susceptible,–
[Cl-].[Cl-].[Co+2] [Cobalt (II) chloride],susceptible,–
CN(C)c1ccc(C(=C2C=CC(=[N+](C)C)C=C2)c2ccc(N(C)C)cc2)cc1 [Crystal violet],susceptible,–
N[C@@H]1CONC1=O [D-Cycloserine],susceptible,–
N[C@H](CO)C(=O)O [D-Serine],susceptible,–
CN(C)[C@@H]1C(O)=C(C(N)=O)C(=O)[C@@]2(O)C(O)=C3C(=O)c4c(O)ccc(Cl)c4[C@@H](O)[C@H]3C[C@@H]12 [Demeclocycline],susceptible,–
CN(C)C(=O)/N=N/C(=O)N(C)C [Diamide],susceptible,–
CN(C)S(=O)(=O)N(SC(F)(Cl)Cl)c1ccccc1 [Dichlofluanid],susceptible,–
CCCCCCCCCCCC[N+](C)(C)C.[Br-] [Dodecyltrimethyl ammonium bromide],susceptible,–
CCCCCCCCCCCC[N+](C)(C)CCOc1ccccc1 [Domiphen bromide],susceptible,–
O=C(O)CN(CCN(CC(=O)O)CC(=O)O)CC(=O)O [EDTA],–,susceptible

Compound,H491 susceptible to compound [1],H491 susceptible to compound
CCn1cc(C(=O)O)c(=O)c2cc(F)c(N3CCNCC3)nc21 [Enoxacin],susceptible,–
"O=C(O)CN(CCOCCOCCN(CC(=O)O)CC(=O)O)CC(=O)O [Ethylene Glycol-bis(b-Aminoethyl ether)-N,N,N′,N′-Tetraacetic Acid]",susceptible,–
N#CC(C#N)=NNc1ccc(OC(F)(F)F)cc1 [FCCP],susceptible,–
O=C1OC(CN2CCOCC2)CN1/N=C/c1ccc([N+](=O)[O-])o1 (stereo not drawn) [Furaltadone],susceptible,–
"CC(=O)O[C@H]1C[C@@]2(C)[C@@H](C[C@@H](O)[C@H]3[C@@]4(C)CC[C@@H](O)[C@@H](C)[C@@H]4CC[C@@]32C)/C1=C(\CCC=C(C)C)C(=O)O [Fusidic acid, sodium salt]",susceptible,–
O=C(O)c1cc(O)c(O)c(O)c1 [Gallic acid],susceptible,–
NCC(=O)NO [Glycine hydroxamate],susceptible,–
N=C(N)N [Guanidine hydrochloride],susceptible,–
Oc1c(Cl)cc(Cl)c(Cl)c1Cc1c(O)c(Cl)cc(Cl)c1Cl [Hexachlorophene],susceptible,–
N.N.N.N.N.N.[Cl-].[Cl-].[Cl-].[Co+3] [Hexamine cobalt (III) chloride],susceptible,–
NC(=O)NO [Hydroxyurea],susceptible,–
O=C(O)CI [Iodoacetic acid],–,susceptible
CO[C@@H]1[C@@H](O[C@@H]2O[C@H](C)[C@@H](O[C@H]3C[C@@](C)(O)[C@@H](OC(=O)CC(C)C)[C@H](C)O3)[C@H](N(C)C)[C@H]2O)[C@@H](CC=O)C[C@@H](C)[C@@H](O)/C=C/C=C/C[C@@H](C)OC(=O)C[C@H]1OC(C)=O [Josamycin],susceptible,–
CC(C(=O)O)c1cccc(C(=O)c2ccccc2)c1 (stereo not drawn) [Ketoprofen],susceptible,–
N[C@@H](CC(=O)NO)C(=O)O [L-Aspartic-b-hydroxamate],susceptible,–
"CCCCCCCCCCCC[N+](C)(C)CCCS(=O)(=O)[O-] [Lauryl sulfobetaine, N-Dodecyl-N,N-dimethyl-3-ammonio-1-propanesulfonate]",susceptible,–
CCN(CC)CC(=O)Nc1c(C)cccc1C [Lidocaine],susceptible,–
CCC[C@@H]1C[C@@H](C(=O)N[C@@H]([C@H]2O[C@H](SC)[C@H](O)[C@@H](O)[C@H]2O)[C@@H](C)O)N(C)C1 [Lincomycin],susceptible,–
[Cl-].[Li+] [Lithium chloride],susceptible,–
"CC1(S(=O)(=O)[O-])CC(=O)c2ccccc2C1=O.[Na+] (stereo not drawn) [Menadione, sodium bisulfite]",susceptible,–
C[n+]1ccc(-c2cc[n+](C)cc2)cc1 [Methyl viologen],susceptible,–
CCCCCCCC[N+](C)(CCCCCCCC)CCCCCCCC.[Cl-] [Methyltrioctylammonium chloride],susceptible,–
CCOc1ccc2ccccc2c1C(=O)N[C@@H]1C(=O)N2[C@@H]1SC(C)(C)[C@@H]2C(=O)O [Nafcillin],susceptible,–
CCn1cc(C(=O)O)c(=O)c2ccc(C)nc21 [Nalidixic acid],susceptible,–

Compound,H491 susceptible to compound [1],H491 susceptible to compound
CO[C@@H]1[C@@H](OC(N)=O)[C@@H](O)[C@H](Oc2ccc3c(O)c(NC(=O)c4ccc(O)c(CC=C(C)C)c4)c(=O)oc3c2C)OC1(C)C [Novobiocin],susceptible,–
"CO[C@H]1C[C@H](O[C@H]2[C@H](C)[C@@H](O[C@@H]3O[C@H](C)C[C@H](N(C)C)[C@H]3O)[C@@H](C)C[C@@]3(CO3)C(=O)[C@H](C)[C@@H](O)[C@@H](C)[C@@H](C)OC(=O)[C@@H]2C)O[C@@H](C)[C@@H]1O [Oleandomycin, phosphate salt]",susceptible,–
Cc1ncc([N+](=O)[O-])n1CC(O)CCl (stereo not drawn) [Ornidazole],susceptible,–
Cc1ccccc1C(OCCN(C)C)c1ccccc1 (stereo not drawn) [Orphenadrine],susceptible,–
Cc1onc(-c2ccccc2)c1C(=O)N[C@@H]1C(=O)N2[C@@H]1SC(C)(C)[C@@H]2C(=O)O [Oxacillin],susceptible,–
CC1=C(C(=O)Nc2ccccc2)S(=O)(=O)CCO1 [Oxycarboxin],susceptible,–
NC[C@@H]1O[C@H](O[C@H]2[C@@H](O)[C@H](O[C@@H]3[C@@H](O)[C@H](N)C[C@H](N)[C@H]3O[C@H]3O[C@H](CO)[C@@H](O)[C@H](O)[C@H]3N)O[C@@H]2CO)[C@H](N)[C@@H](O)[C@@H]1O [Paromomycin],susceptible,–
O=C1C=C2C(=CCOC2O)O1 (stereo not drawn) [Patulin],susceptible,–
CC1(C)S[C@@H]2[C@H](NC(=O)Cc3ccccc3)C(=O)N2[C@H]1C(=O)O [Penicillin G],susceptible,–
Oc1c(Cl)c(Cl)c(Cl)c(Cl)c1Cl [Pentachlorophenol],susceptible,–
CC(Oc1ccccc1)C(=O)N[C@@H]1C(=O)N2[C@@H]1SC(C)(C)[C@@H]2C(=O)O (stereo partly drawn) [Phenethicilllin],susceptible,–
CC1=CC(=O)c2c(O)cccc2C1=O [Plumbagin],susceptible,–
O=[Te]([O-])[O-].[K+].[K+] [Potassium tellurite],susceptible,–
OC(CCN1CCCCC1)(c1ccccc1)c1ccccc1 [Pridinol],susceptible,–
Nc1ccc2cc3ccc(N)cc3nc2c1 [Proflavine],susceptible,–
CC(CN1c2ccccc2Sc2ccccc21)N(C)C (stereo not drawn) [Promethazine],susceptible,–
COc1ccc(C[C@H](N)C(=O)N[C@H]2[C@@H](O)[C@H](n3cnc4c(N(C)C)ncnc43)O[C@@H]2CO)cc1 [Puromycin],susceptible,–
CO[C@H]1/C=C/O[C@@]2(C)Oc3c(C)c([O-])c4c(O)c(cc(O)c4c3C2=O)NC(=O)/C(C)=C\C=C\[C@H](C)[C@H](O)[C@@H](C)[C@@H](O)[C@@H](C)[C@H](OC(C)=O)[C@@H]1C.[Na+] [Rifamycin SV],susceptible,–
"O=C([O-])c1ccccc1O.[Na+] [Salicylate, sodium]",–,susceptible
C[n+]1cc2c3c(ccc2c2ccc4cc5c(cc4c21)OCO5)OCO3 [Sanguinarine chloride],susceptible,–
NNC(N)=O [Semicarbazide hydrochloride],susceptible,–
CN[C@@H]1[C@@H](O)[C@@H](O[C@@H]2[C@@H](O)[C@H](O[C@H]3OC(CN)=CC[C@H]3N)[C@@H](N)C[C@H]2N)OC[C@]1(C)O [Sisomicin],susceptible,–
O=[As]O [Sodium Arsenite],susceptible,–
CCCCCCCC(=O)[O-].[Na+] [Sodium Caprylate],susceptible,–
